Measured values published in patent publication US20180326021A1, “Methods and Compositions for the Treatment of Cytoplasmic Glycogen Storage Disorders” (Duke University, priority 2015, published 2018).
Several values for one entry are separate records, joined by “and”; a condition that tells them apart may be missing. Equal values may be shown once. Entries after “also recorded” stand apart in the source; their conditions may differ.

Assays:
[1] = test system: primary GSD IV mouse muscle cells; assay: rhGAA treatment of cultured primary myoblasts from GSD IV mice; format: cell-based
Description: Primary myoblast cells were isolated from 7-day-old GSD IV mouse skeletal muscle. Early passage cells were seeded in 10-cm culture dishes with EMEM medium containing 10% FBS. When cells reached 90% confluence, rhGAA was added to the culture medium (final activity =1000 nmol/hr/ml). The cells were harvested 24 hours later to analyze glycogen content and GAA activity.
Reduction of glycogen deposition in GSD IV mouse myoblasts by rhGAA treatment was also confirmed by immunofluorescence staining using a mouse anti-glycogen monoclonal antibody ESG1A9mAb.

GSD IV mice = assay: Short-term rhGAA enzyme replacement therapy in GSD IV mice; format: in vivo, mouse
Description: (§1) Methods: A short-term study was conducted to determine the minimum effective dose (MED) of rhGAA treatment with 3 dosages: 20 mg/kg (human equivalent dose, n=6), 40 mg/kg (n=9), and 100 mg/kg (n=8). Male GSD IV mice received weekly intravenous injections of rhGAA were conducted for 4 week starting at age of 10 weeks. A group of age-matched untreated mice (n=8) were used as controls. To prevent anaphylactic reactions, the animals were administered 25 mg/kg diphenhydramine (i.p.) 10-15 min prior to enzyme administration. All mice were sacrificed 48 hours after the last injection following overnight fasting. Fresh tissues were immediately frozen and stored at −80° C. until use for GAA activity and glycogen content analyses. Protein concentration was measured using BCA method.

[2] = test system: patient with PRKAG2 pathogenic gene mutation; assay: Alglucosidase alfa ERT in a patient with PRKAG2 mutation (case report); format: in vivo, human; details: for overall clinical response (neurological, occupational and physical therapy reports): after reinitiation of ERT
From the text: A patient was born by caesarian section at 38 weeks gestation as a result of the nuchal cord being wrapped around their neck. The patient was noted to have hypotonia and generalized muscle weakness. They were areflexic and had feeding difficulties. The patient began developing severe lower respiratory infections which led to frequent admissions to the hospital. […] Following numerous recurrent pneumonias, and the history of muscle weakness, the patient's physicians raised Pompe disease as a potential diagnosis. […] Given the early findings of hypotonia and the low GAA enzyme activity, a diagnosis of non-classic infantile Pompe disease was made. The patient was initiated on ERT with alglucosdase alfa at a dose of 20 mg/kg every 2 weeks.
Baseline assessments were done which included tests for AST (44 IU/L; normal range: <45 IU/L), ALT (20 IU/L; normal range: 9-80 IU/L), along with PT measures looking at muscle strength and function measures. […] Upon examination, the patient has developed more defined calf muscles, along with an improvement of […] strength and power. […] has grown physically stronger and has not had episodes in which […] lacks energy for consecutive days, becomes completely floppy, and is unable to hold their head up properly following a seizure.
At baseline, according to the MABC assessment, the patient achieved a Total Test Score of 68 ranking them in the 25th percentile. Five months after reinitiation of ERT, the patient achieved a Total Test Score of 73 on […] MABC assessment, ranking them in the 37th percentile. A minimal detectable change (MDC) for the MABC has been reported as 1.21 points, representing a true change in motor function. The results in this child show an increase of 5 points over 5 months, which is greater than the minimal important difference (MID) of the MABC, which has been reported as a change of 2.5 points shown over 6 months.

[3] = test system: primary muscle cells from GSD IIIa patients; assay: rhGAA treatment of cultured primary muscle cells from GSD III patients; format: cell-based, human; details: normal and GSD III patient primary muscle cells, rhGAA added to culture
Description: FIG. 2 illustrates an analysis of the skeletal muscle biopsies from two GSD Ma patients, a person (Pt. 1) and a person (Pt. 2). […] (B) Under EM, occasional lysosomal glycogen (arrow) was also seen in the myocytes (scale bar=1 μm). […] (E) GAA activity in normal and patient cells 48 h after adding recombinant human acid alpha-glucosidase (rhGAA, Myozyme, alglucosidase alfa) treatment. […] Mean±standard deviation is shown in C—F (n=4). The significance of differences between two different groups was assessed using the two-tailed, equal variance student T-test ([…]).

GSD III mice = assay: Short-term rhGAA enzyme replacement therapy in GSD III mice; format: in vivo, mouse
Description: as §1, with “GSD III mice were used to test 3 dosages” for “A short-term study was conducted”, “treatment:” for “treatment with 3 dosages:”, “(n=6),” for “(human equivalent dose, n=6),”, “(n=5),” for “(n=9),”, “(n=7). Weekly” for “(n=8). Male GSD IV mice received weekly”, “10 -15” for “10-15”

[4] = rhGAA 1000 nmol/hr/ml in medium, cells harvested 24 hours later
[5] = 20 mg/kg weekly i.v. for 4 weeks
[6] = 40 mg and 100 mg rhGAA treatment
[7] = 40 mg/kg weekly i.v. for 4 weeks
[8] = weekly rhGAA for 4 weeks at 20, 40 or 100 mg/kg, data not shown
[9] = over 5 months on ERT vs pre-ERT baseline
[10] = reassessment, 5 months post ERT

## recombinant human acid alpha-glucosidase [rhGAA]
[1]; 4 hours after rhGAA treatment
  glycogen deposition (immunofluorescence staining): reduction of glycogen was obvious
[1]; 24 hours after rhGAA treatment
  glycogen deposition (immunofluorescence staining): became more evident
[1]; immunofluorescence staining
  glycogen deposition (anti-glycogen antibody ESG1A9mAb staining): reduced glycogen deposition
[1]; [4]
  GAA activity increase: 50%
  glycogen content decrease: 24%
[1]; rhGAA treated vs untreated cells
  glycogen content: significantly (p<0.01) reduced
GSD IV mice; 20 mg/kg
  glycogen in any tissue: failed to reduce glycogen in any tissue
  reduction of glycogen accumulation in liver: not significant
GSD IV mice; [5]
  GAA activity in heart, increase: 1.7 fold
  GAA activity in liver, increase over untreated controls: 29 fold
GSD IV mice; [6]
  liver glycogen decrease: 21-25%
GSD IV mice; [7]
  GAA activity in heart, increase: 2.8 fold
  glycogen content in liver, change: −21%
GSD IV mice; 40 mg/kg, p<0.01 vs untreated
  plasma alanine aminotransferase (ALT): 650±32 U/L
GSD IV mice; 40 mg/kg, p<0.05 vs untreated
  liver/body weight ratio: 5.0±0.2%
GSD IV mice; 40 mg/kg, p=0.074 vs untreated
  plasma aspartate aminotransferase (AST): 849±50 U/L
GSD IV mice; 100 mg/kg
  GAA activity in skeletal muscles, increase: 1.6 fold
GSD IV mice; 100 mg/kg weekly i.v. for 4 weeks
  glycogen content in liver, change: −25%
GSD IV mice; 20, 40, 100 mg/kg, dose dependent
  GAA activity in tissues: significant increase
GSD IV mice; at either dosage (20 or 40 mg/kg)
  GAA activity in quadriceps, increase: negligible
GSD IV mice; either treated group (20 or 40 mg/kg)
  GAA activity in gastrocnemius, increase: less than 1 fold
GSD IV mice; [8]
  anti-GAA antibodies generated, compared with that reported in GAA-KO mice: significantly less
[2]; after five months of ERT
  visual motor, fine motor, and gross motor skills (M-FUN): improvement
[2]; listed as ERT
  overall clinical response (neurological, occupational and physical therapy reports): a clinical benefit was noted; also recorded: significant positive response
[2]; listed as alglucosidase alfa
  overall clinical response (neurological, occupational and physical therapy reports): significant improvement; also recorded: significant musculoskeletal improvements
[2]; five months of ERT, listed as ERT
  fatigue on reassessment: less fatigue
[2]; [9]
  Movement ABC percentile increase: 12
  Movement ABC score increase: 5 points
[2]; re-assessment, 5 months after reinitiation of ERT
  Movement ABC Total Test Score: 73
[2]; re-assessment, 5 months after reinitiation of ERT, listed as ERT
  Movement ABC percentile: 37 percentile and 37th percentile
[2]; [10]
  M-FUN Fine Motor Progress Score: 394
  M-FUN Fine Motor Scaled Score: 5 (considered mild/
  M-FUN Fine Motor assessment notes: Patient's scaled scores show a fine motor improvement
  M-FUN Gross Motor Progress Score: 407
  M-FUN Gross Motor Scaled Score: 3 (considered very
  M-FUN Gross Motor reassessment notes: gaining new motor skills and is improving in their current
  M-FUN Visual Motor Progress Score: 496
  M-FUN Visual Motor Scaled Score: 9 (considered “average” or
  M-FUN Visual Motor assessment notes: Patient's scaled scores show a visual motor improvement
[2]; since reinitiation of ERT
  seizures: better controlled
[2]; three months after first initiation of ERT, 20 mg/kg every 2 weeks
  gross motor abilities assessed by physical therapist: began improving
[3]
  glycogen concentration: significantly reduced
GSD III mice; [6]
  liver glycogen decrease: 24-25%
GSD III mice; 40 mg and 100 mg treatments
  glycogen content in heart: significantly reduced
  glycogen content in liver: significantly reduced
  ratio of liver/body weight: reduced
GSD III mice; 20-mg treatment
  glycogen content in any tissues: did not affect
GSD III mice; 40-mg and 100-mg treatment groups
  glycogen content in skeletal muscles: no significant change
GSD III mice; weekly i.v. for 4 weeks
  GAA enzyme uptake (GAA activity rank order of tissues): liver>heart>diaphragm>leg muscles
GSD III mice; weekly rhGAA for 4 weeks
  plasma alanine aminotransferase (ALT): reduction
  plasma alkaline phosphatase (ALP): reduction
  plasma aspartate aminotransferase (AST): reduction
  plasma creatine kinase (CK): reduction
GSD III mice; [8]
  anti-GAA antibodies generated, compared with that reported in GAA-KO mice: significantly less
